Data on one molecule can be found in patent publication US8012983B2, “Substituted triazolopyrazines useful for the treatment of degenerative and inflammatory diseases” (Galapagos NV, priority 2008, dated 2011).

In experiment [1] the test system is MMP1 expression by activated synovial fibroblasts (RASFs). Put plainly: 'MMP assay': complex trigger-induced MMP1 expression by synovial fibroblasts (MMP1 ELISA). To be noted: Homo sapiens, Fibroblast; complex trigger activated SFs, 48 hrs, FIG. 3; read-out: IC50 value, reduction of MMP1 expression by SFs. Format: cell-based. The method, then: A 384-well format ELISA for measurement of MMP1 is developed. Various primary antibodies are tested, as well as various ELISA protocols. The following protocol is developed and validated to measure MMP1 levels in SF supernatant in 384 well plates: white Lumitrac 600 384 well plates (Greiner) are coated with 2 μg/mL anti-MMP1 antibody MAB1346 (Chemicon). The antibody is diluted in buffer 40 (1.21 g Tris base (Sigma), 0.58 g NaCl (Calbiochem) and 5 ml 10% NaN3 (Sigma) in 1 L milliQ water and adjusted to pH 8.5). After overnight incubation at 4° C., plates are washed with PBS (80 g NaCl, 2 g KCl (Sigma), 11.5 g Na2HPO4.7H2O and 2 g KH2PO4 in 10 L milliQ; pH 7.4) and blocked with 100 μL/well Casein buffer (2% Casein (VWR International) in PBS). Next day, casein buffer is removed from ELISA plates and replaced by 50 μL/well EC buffer (4 g casein, 2.13 g Na2HPO4 (Sigma), 2 g bovine albumin (Sigma), 0.69 g NaH2PO4.H2O (Sigma), 0.5 g CHAPS (Roche), 23.3 g NaCl, 4 ml 0,5 M EDTA pH 8 (Invitrogen), 5 ml 10% NaN3 in 1 L milliQ and adjusted to pH 7.0). 0.25 mM DTT (Sigma) is added to the thawed samples plates. After removal of the EC buffer, 20 μL of sample is transferred to the ELISA plates. After overnight incubation at 4° C. plates are washed twice with PBS and once with PBST (PBS with 0.05% Tween-20 (Sigma)) and incubated with 35 μL/well biotinylated anti-MMP1 antibody solution (R&D). This secondary antibody is diluted in buffer C (0.82 g NaH2PO4.H2O, 4.82 g Na2HPO4, 46.6 g NaCl, 20 g bovine albumin and 4 mL 0,5M EDTA pH 8 in 2 L milliQ and adjusted to pH 7.0) at a concentration of 5 μg/mL. After 2 h of incubation at RT, plates are washed as described above and incubated with 50 μL/well streptavidin-HRP conjugate (Biosource). Streptavidin-HRP conjugate is diluted in buffer C at a concentration of 0.25 μg/mL. After 45 min, plates are washed as described above and incubated for 5 min with 50 μL/well BM Chem ELISA Substrate (Roche). Readout is performed on the Luminoscan Ascent Luminometer (Labsystems) with an integration time of 200 msec or with an Envision reader (Perkin Elmer).
The increase of MMP1 expression by SFs upon treatment with cytokines relevant in the field of RA (TNF-α, IL1β and OSM) or a combination thereof is shown in FIG. 2 as white bars. For this experiment, SFs are seeded in 96 well plates, 3,000 cells/well. 24 h later, the medium is changed to M199 medium supplemented with 1% FBS. One day after the medium change, cytokines or combinations thereof are added to the cultures, each cytokine being added to a final concentration of 25 ng/mL. 72 h after cytokine addition, the supernatant is collected and processed in the MMP1 ELISA as described in the protocol given above. In parallel with this experiment, SFs are triggered, using the same protocol, with the supernatant of THP1 cells (2-fold diluted in M199+1% FBS) treated with the same cytokines or combinations of cytokines for 48 h in M199 medium+1% FBS. The induction of the MMP1 expression by SFs triggered with the supernatants of TNF-α-treated THP1 cells is stronger (>4.5 fold induction) as compared to the SFs triggered with recombinant TNF-α alone (3-fold induction) and almost equals the 5-fold induction obtained by a mixture of 3 purified cytokines (TNF-α, IL1βb, OSM). […] As the role of TNF-α in the RA pathogenesis is validated (TNF-α-blockers such as Infliximab and Etanercept show some efficacy in the treatment of RA patients) and the THP-1 cells are representative for monocytes/macrophages present in the joint of RA patients, the TNF-α-based trigger mixture prepared by contacting THP-1 cells with TNF-α will contain factors present in the joints of RA patients and subsequently is relevant to RA. This TNF-α-based complex trigger, further referred to as the ‘complex trigger’, will further be used as basis for the ‘MMP assay’. […]

Experiment [2] has as its system TNF alpha. Put plainly: Septic shock model (LPS-induced TNF release). Format: in vivo, BALB/cJ female mice. To be noted: after injection of LPS, benchmark, FIG. 7.
Procedure: Six BALB/cJ female mice (20 g) per group are treated at the intended dosing once, po. Thirty minutes later, LPS (15 μg/kg; E. coli serotype 0111:B4) is injected ip. Ninety minutes later, mice are euthanized and blood is collected. Circulating TNF alpha levels are determined using commercially available ELISA kits. Dexamethasone (5 μg/kg) is used as a reference anti-inflammatory compound.

The term IC50 denotes the concentration needed to halve the response being measured.

For `C[C@@H]1C[C@H]2[C@@H]3CCC4=CC(=O)C=C[C@]4(C)[C@@]3(F)[C@@H](O)C[C@]2(C)[C@@]1(O)C(=O)CO` [dexamethasone, reference compound], the IC50 in experiment [1] is roughly 1 nM. For the same molecule, in experiment [2], the “percentage inhibition of TNF alpha release” value is 100%.
